One may read the IC50 as the midpoint of a concentration-inhibition curve. Low readings indicate higher potency, high ones lower potency. What is called EC50 is the concentration needed to bring the measured effect to its halfway point.

This note sets out measurements from patent publication US7452997B2 (priority 2004, dated 2008).

Assay [1] concerns the target T1, human CB2 receptor (Homo sapiens, UniProt P34972). The assay can be described thus: Binding assay, cannabinoid CB2 receptor ([3H]-CP-55,940 displacement). The conditions noted are these: Cannabinoid CB2 Receptor Binding IC50, human CB2 receptor, SK-N-MC cell membranes, radioligand CP-55,940 0.2 nM. Put shortly:
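Membranes from SK-N-MC cells stably expressing human CB2, incubated with test compound and 0.2 nM [3H]-CP-55,940 for 90 min at 30 °C in Tris buffer pH 7.5 with fatty-acid-free BSA. Nonspecific binding defined with 10 uM WIN 55,212; filtration and scintillation counting, IC50 by linear regression.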

The target of assay [2] is T2, human CB1 receptor (Homo sapiens, UniProt P21554).
T2 construct: expressed in transfected cells; host or cells: SK-N-MC cells, stably transfected with pcDNA3 CB-1 (human); semi-purified membrane pellet
The assay can be described thus: biochemical. The format is binding. Put shortly:
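Membranes from SK-N-MC cells stably expressing human CB1, incubated 90 minutes at 30° C in Tris-HCl buffer with MgCl2, EDTA and fatty acid free BSA, pH 7.5. Bound counts collected by filtration and scintillation counting; IC50 from linear regression over varying compound concentrations.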

For assay [3], the target named is T1, human CB2 receptor. The assay can be described thus: Functional cell-based assay, CB2 receptor mediated change in CRE β-gal expression (agonist / inverse agonist). Conditions: SK-N-MC cells, forskolin. The source says: Functional Cell-Based Assay for CB1 or CB2 Agonist and Inverse Agonist Effects on Intra-Cellular Adenylate Cyclase Activity
The CB1 and CB2 receptors are G-protein coupled receptors (GPCR) which influence cell function via the Gi-protein. These receptors modulate the activity of intracellular adenylate cyclase which in turn produces the intracellular signal messenger cyclic-AMP (cAMP).
At baseline, or during non-ligand bound conditions, these receptors are constitutively active and tonically suppress adenylate cyclase activity. The binding of an agonists causes further receptor activation and produces additional suppression of adenylate cyclase activity. The binding of an inverse agonist inhibits the constitutive activity of the receptors and results in an increase in adenylate cyclase activity.
By monitoring intracellular adenylate cyclase activity, the ability of compounds to act as agonists or inverse agonists can be determined.
Test compounds were evaluated in SK-N-MC cells which, using standard transfection procedures, were stably transfected with human cDNA for pcDNA3-CRE β-gal and pcDNA3 CB1 receptor (human) or pcDNA3 CB2 receptor (human). By expressing CRE β-gal, the cells produced β-galactosidase in response to CRE promoter activation by cAMP. Cells expressing CRE β-gal and either the human CB1 or CB2 receptor will produce less β-galactosidase when treated with a CB1/CB2 agonist and will produce more β-galactosidase when treated with a CB1/CB2 inverse agonist.
The cells were grown in 96-well plates under standard cell culture conditions at 37° C. in a 5% CO2 atmosphere. After 3 days, the media was removed and a test compound in media (wherein the media was supplemented with 2 mM L-glutamine, […] sodium pyruvate, 0.1% low fatty acid FBS (fetal bovine serum) and antibiotics) was added to the cell. The plates were incubated for 30 minutes at 37° C. and the plate cells were then treated with forskolin over a 4-6 hour period, then washed and lysed. The β-galactosidase activity was quantitated using commercially available kit reagents (Promega Corp. Madison, Wis.) and a VMAX Plate Reader (Molecular Devices, Inc).
For cells expressing CRE β-gal and the CB2 receptor, CB2 agonists reduced β-galactosidase activity in a dose-dependent manner and CB2 inverse agonists increased β-galactosidase activity in a dose-dependent manner.
The change in β-galactosidase activity was determined by setting a vehicle treated cell's activity value at 100% and expressing the β-galactosidase activity measured in a corresponding compound treated cell as a percent of the vehicle treated cell activity.
The EC50 values for compounds tested were calculated by linear regression and were obtained from studies in which varying compound concentrations were used.

The mark [4] stands for this setting: agonist, read-out: CB2 Receptor Functional Agonist EC50.
Setting [5] is: inverse agonist, read-out: CB2 Receptor Functional Inverse Agonist EC50.

Each structure is given as a SMILES string. Read-outs that look alike come from different tables or passages of the source.

T2 sequence (P21554 whole entry): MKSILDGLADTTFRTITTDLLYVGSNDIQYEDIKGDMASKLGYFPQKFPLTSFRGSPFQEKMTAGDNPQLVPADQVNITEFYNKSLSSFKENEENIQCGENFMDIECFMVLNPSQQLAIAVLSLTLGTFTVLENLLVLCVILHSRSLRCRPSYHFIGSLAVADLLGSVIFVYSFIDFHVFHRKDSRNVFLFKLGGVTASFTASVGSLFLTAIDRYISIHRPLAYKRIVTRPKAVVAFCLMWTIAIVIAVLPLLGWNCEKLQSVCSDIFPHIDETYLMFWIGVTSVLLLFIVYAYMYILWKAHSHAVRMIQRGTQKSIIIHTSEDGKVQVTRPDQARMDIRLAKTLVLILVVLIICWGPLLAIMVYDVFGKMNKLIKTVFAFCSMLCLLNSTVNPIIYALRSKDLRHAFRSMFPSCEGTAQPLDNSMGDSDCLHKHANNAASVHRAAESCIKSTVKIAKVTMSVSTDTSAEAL
T1 sequence (P34972 whole entry): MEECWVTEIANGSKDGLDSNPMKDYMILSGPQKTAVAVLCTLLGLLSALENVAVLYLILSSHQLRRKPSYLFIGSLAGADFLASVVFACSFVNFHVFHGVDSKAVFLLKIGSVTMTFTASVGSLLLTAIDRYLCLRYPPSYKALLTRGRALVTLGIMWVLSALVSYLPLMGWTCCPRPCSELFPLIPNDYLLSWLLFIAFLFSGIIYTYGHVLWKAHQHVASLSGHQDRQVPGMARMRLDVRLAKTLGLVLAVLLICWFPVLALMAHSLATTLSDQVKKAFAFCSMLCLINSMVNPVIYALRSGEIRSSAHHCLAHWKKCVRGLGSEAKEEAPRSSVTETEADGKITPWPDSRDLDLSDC

Regarding `CC(=O)OC1CCc2c(c(C(=O)NC3C4(C)CCC(C4)C3(C)C)nn2C2CCCCC2)C1` (centres unmarked) [compound 94], the IC50 in assay [1] was determined as 20 nM; in assay [2] it was 1780 nM. In assay [3] (setting [4]), the EC50 was 25 nM.
In turn, `CCOC(=O)C1CCc2c(c(C(=O)NC(C)C34CC5CC(CC(C5)C3)C4)nn2-c2ccccc2)C1` (centres unmarked) [compound 116] had an IC50 in assay [1] of 990 nM. Also, in assay [3] (setting [5]), the 50% effective concentration (EC50) came out at 500 nM.
Take `O=C(NC1C2CC3CC(C2)CC1C3)c1nn(CC2CCCCC2)c2c1CCCC2` (centres unmarked) [compound 122]: the IC50 in assay [1] was 1.5 nM; in assay [2] it was 4 nM. The half-maximal effective concentration (EC50) in assay [3] (setting [4]) amounted to 37 nM.
In the case of `CC(NC(=O)c1nn(CC2CCCCC2)c2c1CCCC2)C12CC3CC(CC(C3)C1)C2` (centres unmarked) [compound 123], the 50% inhibitory concentration (IC50) worked out at 4.6 nM in assay [1] and 7.5 nM in assay [2]. Further, the 50% effective concentration (EC50) in assay [3] (setting [4]) was determined as 7.5 nM.
Consider `CCOC(=O)C1CCc2c(c(C(=O)NC3C4(C)CCC(C4)C3(C)C)nn2Cc2ccccc2)C1` (centres unmarked) [compound 149], for which the concentration for half-maximal inhibition (IC50) in assay [1] came out at 8 nM; in assay [2], 67 nM. In addition, in assay [3] (setting [5]), the concentration for a half-maximal effect (EC50) amounted to 7.9 nM.
Turning to `CCOC(=O)[C@H]1C2CCC(C2)[C@H]1NC(=O)c1nn(-c2ccc(F)cc2)c2c1CCCC2CCc1ccccc1` (some centres unmarked) [compound 154], the 50% inhibitory concentration (IC50) in assay [1] was 370 nM; in assay [2], 60 nM. The EC50 in assay [3] (setting [4]) stood at 9 nM.
Consider `CCOC(=O)C1CCc2c(C(=O)NCC34CC5CC(CC(C5)C3)C4)nn(Cc3ccccc3)c2C1` (centres unmarked) [compound 156], for which the values for the half-maximal inhibitory concentration (IC50) in assay [1] and in assay [2] were 2 nM and 97 nM, respectively. In assay [3] (setting [5]), the EC50 was 35 nM.
The matching figures for `CCOC(=O)C1CCc2c(C(=O)NC34CC5CC(CC3C5)C4)nn(Cc3ccccc3)c2C1` (centres unmarked) [compound 157]: 2 nM, 30 nM and 1.5 nM.
Consider `CC(NC(=O)c1nn(C2CCCCC2)c2c1CCCC2)C1CCCCC1` (centres unmarked) [compound 184], for which the half-inhibitory concentration (IC50) came out at 20 nM in assay [1] and 50 nM in assay [2]. Further, the EC50 in assay [3] (setting [4]) came to 100 nM.
For `C[C@@H](NC(=O)c1nn(C2CCCCC2)c2c1CCCC2)C1CCCCC1` [compound 195] the same measures were 20 nM, 100 nM and 5.5 nM.
For `CC12CCC(C1)C(C)(C)[C@H]2NC(=O)c1nn(C2CCCCC2)c2c1CCCC2` (some centres unmarked) [compound 207] the same measures were 1.6 nM, 82.4 nM and 10 nM.
Take `CCOC(=O)[C@@H]1CCc2c(c(C(=O)NC3C4CC5CC(C4)CC3C5)nn2Cc2ccccc2)C1` (some centres unmarked) [compound 211]: the results for the concentration for half-maximal inhibition (IC50) in assay [1] and in assay [2] were 0.7 nM and 5 nM, respectively. Moreover, the EC50 in assay [3] (setting [5]) was found to be 16 nM.
As for `C[C@@H](NC(=O)c1nn(C2CCCCC2)c2c1CCCC2)C12CC3CC(CC(C3)C1)C2` [compound 212], the results for the concentration for half-maximal inhibition (IC50) in assay [1] and in assay [2] were 74 nM and 260 nM, respectively. Further, the half-maximal effective concentration (EC50) in assay [3] (setting [4]) was determined as 3.7 nM.
Turning to `CCOC(=O)[C@@H]1CCc2c(c(C(=O)NC(C)C34CC5CC(CC(C5)C3)C4)nn2C2CCCCC2)C1` (some centres unmarked) [compound 214], the IC50 was found to be 15.3 nM in assay [1] and 1230 nM in assay [2]. Also, the EC50 in assay [3] (setting [5]) stood at 120 nM.
Take `CCOC(=O)[C@H]1CCc2c(c(C(=O)NC(C)C34CC5CC(CC(C5)C3)C4)nn2C2CCCCC2)C1` (some centres unmarked) [compound 215]: the IC50 in assay [1] was found to be 200 nM. Moreover, the half-maximal effective concentration (EC50) in assay [3] (setting [5]) worked out at 220 nM.
In the case of `CC12CCC(C1)C(C)(C)[C@@H]2NC(=O)c1nn(Cc2ccccc2)c2c1CCCC2` (some centres unmarked) [compound 217], the half-maximal inhibitory concentration (IC50) was determined as 0.1 nM in assay [1] and 2.6 nM in assay [2]. For the same compound, the half-maximal effective concentration (EC50) in assay [3] (setting [4]) came to 0.052 nM.
In assay [2], `COC(=O)C1CCc2c(c(C(=O)NC3C4CC5CC(C4)CC3C5)nn2C2CCCCC2)C1` (centres unmarked) [compound 231] showed a concentration for half-maximal inhibition (IC50) of 638 nM. The EC50 in assay [3] (setting [5]) turned out to be 35 nM.
Regarding `CCOC(=O)C1CCc2c(c(C(=O)N[C@H](C)C3CCCCC3)nn2C2CCCCC2)C1` (some centres unmarked) [compound 251], the IC50 in assay [1] amounted to 2.8 nM. The EC50 in assay [3] (setting [5]) came out at 23 nM.
